Measured values: patent US20230330034A1, “COVALENTLY CROSS-LINKED GLYCOSYLATED MUCIN NANOPARTICLES AS SYSTEMS FOR THE DELIVERY AND RELEASE OF ACTIVE INGREDIENTS AND BIOMOLECULES” (priority 2020, published 2023)

Key:
[1] = PAMPA, 5 h, 200 µM
[2] = system: H358 lung cancer cell line; test: Antiproliferative activity, % of cell viability; assay type: cell-based; conditions: Homo sapiens, NCI-H358, read-out: 1050

Row | Ca (t) [1] | Cd(t) [1] | Ceq [1] | IC50 [2] | SMILES
1 | 2.01 µM | 6.6 µM | 3.85 µM | – | CC(C)NCC(O)COc1cccc2ccccc12 (centres unmarked) [propranolol]
2 | – | – | – | 0.3 nM | COc1cccc2c1C(=O)c1c(O)c3c(c(O)c1C2=O)C[C@@](O)(C(=O)CO)C[C@@H]3O[C@H]1C[C@H](N)[C@H](O)[C@H](C)O1 [doxorubicin]
3 | – | – | – | 7 nM | CC(=O)Nc1cccc(-n2c(=O)n(C3CC3)c(=O)c3c(Nc4ccc(I)cc4F)n(C)c(=O)c(C)c32)c1 [trametinib]
